Reference: patent US20080145313A1, “Compositions and Methods for the Treatment and Prevention of Neoplastic Disorders” (Genesis Research & Development Corporation Limited, priority 2006, published 2008)

Key:
[1] = test system: A549 xenograft tumor; test: Xenograft tumor growth of A549 cells transfected with siRNA pre-implantation in CD-1 nude mice; format: in vivo, mouse; details: for tumor growth rate compared to control groups: A549 cells transfected with siRNA before s.c. inoculation; for tumor growth inhibition compared to the control groups: cells transfected pre-implantation, monitored 33 or 26 days
Description: To determine the effect of RRM1 knockdown on tumor growth, A549 cells (human lung cancer cell line; ATCC No. CCL-185) were reverse-transfected prior to implantation in CD-1 nude mice. In 175 cm^2 culture flasks, 10×10^6 A549 cells (in RPMI supplemented with 10% fetal calf serum) were added to pre-made lipoplexes. To make lipoplexes, Lipofectamine RNAiMAX in serum-free RPMI was added to an equal volume of serum-free RPMI containing siRNA (RRM1-2; SEQ ID NO: 4831 (DNA), and SEQ ID NO: 5137 (RNA)) and a control siRNA (SEQ ID NO: 4804 (DNA), and SEQ ID NO: 5301 (RNA)). After addition of cells, the final concentration of siRNA in the flask was 10 nM. Untransfected cells served as a further control. Flasks were incubated at 37° C. for 24 h to allow transfection to proceed.
The cells were harvested by trypsinization 24 h after the transfection, washed twice in PBS and viable cells were counted. Equal numbers of cells (1×10^7) were inoculated into CD-1 nude mice (n=7-9). Briefly, 5 to 7 weeks old nude mice were subcutaneously (s.c.) injected in the right flank with A549 cells in 100 μl PBS. Tumor growth was monitored 3 times per week by measuring tumor sizes using a digital caliper. Tumor volume was expressed in […] using the formula: V=a^2×b×0.52, where a and b represent the minimum and maximum tumor diameter, respectively. Mean tumor volumes calculated from each measurement were then plotted in a standard graph to compare the tumor growth of transfected cells to that of control.
To determine the effect of siRNA-mediated knockdown of HK-II, CAD, IMPDH2, RRM2, SLC16A1 and SLC29A1 on tumor growth, A549 cells (human lung cancer cell line; ATCC No. CCL-185) were reverse-transfected prior to implantation in CD-1 nude mice as described above with siRNAs given in SEQ ID NO: 5307 (DNA), and SEQ ID NO: 5304 (RNA) for RRM2, SEQ ID NO: 4932 (DNA), and SEQ ID NO: 5227 (RNA) for ENT1, SEQ ID NO: 4813 (DNA), and SEQ ID NO: 5119 (RNA) for HK-II, SEQ ID NO: 4827 (DNA), and SEQ ID NO: 5133 (RNA) for CAD, SEQ ID NO: 4879 (DNA), and SEQ ID NO: 5182 (RNA) for IMPDH2 and SEQ ID NO: 4924 (DNA), and SEQ ID NO: 5219 (RNA) for SLC16A1, respectively. The siRNA given in SEQ ID NO: 4804 (DNA), and SEQ ID NO: 5301 (RNA) was used as control.
In two separate experiments, CD-1 mice were divided into five groups that received untransfected A549 cells, cells transfected with control siRNA or three different siRNAs (as listed above), respectively. Cells were transfected in vitro using the method as described in Example 8, and 24 h after transfection, s.c. inoculated into mice. Tumor growth was measured 3 times per week. In the first experiment, mice received cells transfected with siRNA targeting RRM2, HK-II or SLC29A1 and were monitored for 33 days. In the second experiment, mice received cells transfected with siRNA targeting CAD, IMPDH2 or SLC16A1, and were monitored for 26 days. […] Similarly, preliminary data indicated tumor growth rate was reduced for the groups receiving cells transfected with siRNA targeting CAD and SLC16A1. Twenty-six days after cell inoculation, the tumor volume for mice with cells transfected with siRNA targeting CAD or SLC16A1 was 97.2±7.3 mm^3 or 110.1±28.1 mm^3, respectively.

[2] = test system: A549 cells; test: Growth inhibition of siRNA-transfected A549 cells, SYBR Green I DNA content; format: cell-based, human; details: for Growth Inhibition in A549 cells / Growth Inhibition in A549 cells by 10 nM siRNA: 10 nM siRNA, DNA content 96 hours after transfection; for Growth Inhibition in A549 cells by 10 nM siRNA: transporter gene targets
How it was run: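 A549 cells reverse-transfected with 10 nM Stealth siRNAs via Lipofectamine RNAiMAX, seeded at 5×10^3 cells/cm^2 in RPMI 1640/10% FCS; non-specific siRNA control. DNA content read 96 h post-transfection by SYBR Green I fluorescence (ex 485/em 535 nm) after freeze-thaw and Triton X-100 lysis; mean of three wells.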

[3] = test system: target transcript mRNA in A549 cells; test: Level of mRNA of target transcript in A549 cells by quantitative RT-PCR (Tables 12 and 13); format: cell-based, human; details: 24 h post-transfection; for mRNA knockdown of transporter gene target transcript, 0.1 nM: 0.1 nM siRNA; for mRNA knockdown of transporter gene target transcript, 1 nM: 1 nM siRNA
How it was run: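 A549 cells were transfected with siRNA at 0.1, 1.0 and 10 nM. RNA was extracted 24 h later, reverse-transcribed with random primers, and target mRNA quantified by SYBR Green qRT-PCR. Values were normalised to housekeeping genes HPRT and Lamin.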

Substance | Growth Inhibition in A549 cells [2] | Growth Inhibition in A549 cells by 10 nM siRNA [2] | mRNA knockdown of transporter gene target transcript, 0.1 nM [3] | mRNA knockdown of transporter gene target transcript, 1 nM [3] | further results
SEQ ID NO: 4831: Stealth siRNA targeting RRM1 (chain 1 TAGAAGTGCATACTAGTGAGTTTGC; chain 2 UAGAAGUGCAUACUAGUGAGUUUGC; Stealth siRNA, chemical pattern not given here; one strand in two spellings) | ++ (inhibits by at least 75%) | – | – | – | mice with measurable tumors ([1]; A549 cells transfected with 10 nM siRNA 24 h before s.c. inoculation): two of eight; tumor growth rate compared to control groups [1]: reduced dramatically; average tumor size ([1]; six weeks after the cell inoculation, 10 nM siRNA pre-implantation): 49.1±18.4 mm^3; growth inhibition, A549 ([2]; 0.1 nM siRNA, 96 h post-transfection, normalized to control siRNA): 50%
SEQ ID NO: 4813: siRNA targeting HK-II (chain 1 AATGAGACCAATCTCACAGTTGTGG; chain 2 AAUGAGACCAAUCUCACAGUUGUGG; chemistry not given here; one strand in two spellings) | ++ (inhibits by at least 75%) | – | – | – | tumor growth inhibition compared to the control groups [1]: No tumor growth inhibition
SEQ ID NO: 4827: siRNA targeting CAD (chain 1 TTCAAGAGAATTTGCTGCCTCGCTC; chain 2 UUCAAGAGAAUUUGCUGCCUCGCUC; chemistry not given here; one strand in two spellings) | + (inhibits by at least 50%) | – | – | – | tumor growth rate compared to control groups [1]: reduced; tumor volume ([1]; twenty-six days after cell inoculation, preliminary data): 97.2±7.3 mm^3
SEQ ID NO: 4952: siRNA targeting ATP6V1B2 (chain 1 TACAACAGGACCTCTGTCAATGGGT; chain 2 UACAACAGGACCUCUGUCAAUGGGU; chemistry not given here; one strand in two spellings) | – | − (no growth inhibition) | − (<50% mRNA knockdown) | + (50-70% mRNA knockdown) | –
SEQ ID NO: 4938: siRNA targeting ATP2B1 (PMCA1) (chain 1 AAATCTTGTCTATCCTCTCTTGCTC; chain 2 AAAUCUUGUCUAUCCUCUCUUGCUC; chemistry not given here; one strand in two spellings) | – | − (no growth inhibition) | + (50-70% mRNA knockdown) | ++ (70-90% mRNA knockdown) | –
SEQ ID NO: 4908: siRNA targeting SLC3A2 (4F2hc) (chain 1 AAGTTGAGCCGGCAAGAAGGAAGTC; chain 2 AAGUUGAGCCGGCAAGAAGGAAGUC; Antisense strand given in DNA and RNA notation, chemistry not given here; one strand in two spellings) | – | ++ (inhibits by at least 75%) | − (<50% mRNA knockdown) | + (50-70% mRNA knockdown) | –
SEQ ID NO: 4879: siRNA targeting IMPDH2 (chain 1 AATACCGCCTGTAAGCGCCATTGCT; chain 2 AAUACCGCCUGUAAGCGCCAUUGCU; Both strands are one antisense strand in DNA/RNA notation, chemistry not given here, further chemistry not given here; one strand in two spellings) | ++ (inhibits by at least 75%) | – | – | – | tumor growth inhibition compared to the control groups [1]: No tumor growth inhibition
SEQ ID NO: 4916: siRNA targeting SLC23A2 (SVCT2) (chain 1 AATACTAGGAATATTGTCAGCATGG; chain 2 AAUACUAGGAAUAUUGUCAGCAUGG; Antisense strand given in DNA and RNA notation, chemistry not given here; one strand in two spellings) | – | − (no growth inhibition) | ++ (70-90% mRNA knockdown) | ++ (70-90% mRNA knockdown) | –
SEQ ID NO: 4904: siRNA targeting SLC7A11 (xCT) (chain 1 AGATAAATCAGCCCAGCAACTGCCA; chain 2 AGAUAAAUCAGCCCAGCAACUGCCA; Antisense strand given in DNA and RNA notation, chemistry not given here; one strand in two spellings) | – | − (no growth inhibition) | + (50-70% mRNA knockdown) | ++ (70-90% mRNA knockdown) | –
SEQ ID NO: 4920: siRNA targeting SLC9A1 (NHE1) (chain 1 TCAGGTAGTTGTTGATCTTCTGCTC; chain 2 UCAGGUAGUUGUUGAUCUUCUGCUC; chemistry not given here; one strand in two spellings) | – | − (no growth inhibition) | ++ (70-90% mRNA knockdown) | ++ (70-90% mRNA knockdown) | –
